{"source": "PubChem BioAssay AID1773", "about": "(Sanford-Burnham Center for Chemical Genomics, 2009)", "system": "MDA-MB-435 TRAIL potentiation, ATPlite cytotoxicity, 24 h", "experiment": "PubChem AID 1773", "details": "stronger effect = higher value", "data": [{"smiles": "CSc1nc(-c2ccc(C)cc2)nc(C(Cl)Cl)n1", "values": [{"measurement": "cytotoxicity", "setting": "at 5 µM", "result": 50, "unit": "%"}, {"measurement": "cytotoxicity with 30 ng/mL TRAIL", "setting": "at 5 µM", "result": 91, "unit": "%"}, {"measurement": "cytotoxicity", "setting": "compound 2.5 uM plus TRAIL 10, at 2.5 µM", "result": 84, "unit": "%"}, {"measurement": "cytotoxicity", "setting": "compound alone cytotoxicity, at 5 µM", "result": -1, "unit": "%"}, {"measurement": "cytotoxicity", "setting": "compound plus 100 ng/mL TRAIL, at 5 µM", "result": 83, "unit": "%"}]}]}
